These results are taken from patent US11111245B2, “Derivatives of N-cycloalkyl/heterocycloalkyl-4-(imidazo[1,2-a]pyridine)pyrimidin-2-amine as therapeutic agents” (Aucentra Therapeutics Pty Ltd, priority 2017, dated 2021).

One assay addresses CDK4/D1 (Homo sapiens, UniProt P11802). As to the kind of experiment: ADP Glo Kinase assay CDK4/D1. Format: biochemical. The settings on record: CDK4D1; for remaining activity at 10 µM: compound at 10 μM, read-out: residual activity (%) at 10 μM CDK4D1. Put shortly: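 Compounds tested at 10 concentrations (10 μM to 0.5 nM, 1:3 steps) against CDK4/D1 or CDK6/D3, RB-CTF substrate, Tris pH 7.5 buffer with MgCl2, DTT and BSA.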
For orientation: ADP-Glo first removes unused ATP, then detects ADP through luciferase.

For another assay, the target named is CDK9/T1 (Homo sapiens, UniProt P50750). As to the kind of experiment: ADP Glo Kinase assay CDK9/T1. The assay is classed as biochemical. The settings on record: CDK9T1; read-out: CDK inhibition, Ki (μM) CDK9T1. Put shortly: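 ADP Glo luminescence, in-house: CDK4/D1, CDK6/D3 on RB-CTF substrate (Tris pH 7.5, MgCl2, DTT, BSA); CDK9/T1 on RBER-IRStide. Reaction 40 min, 37° C after ATP addition. 10-point 1:3 series, 10 μM to 0.5 nM. IC50 by 4-parameter logistic; Ki derived using ATP Km.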

In assay [1] the target is T1, CDKs and other kinases (Homo sapiens, UniProt P06493).
T1 construct: other: CDK1B; residual activity (%) at 10 μM CDK1B; compound at 10 μM
As to the kind of experiment: Radiometric kinase assay (Eurofins Pharma Discovery or Reaction Biology Corporation Kinase Profiler). The settings on record: CDK1B; for remaining activity at 10 µM: compound at 10 μM, read-out: residual activity (%) at 10 μM CDK1B; for Ki: read-out: CDK inhibition, Ki (μM) CDK1B. The assay is classed as biochemical. Put shortly:
(§1)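 Other CDKs and further kinases were profiled externally by radiometric assay. In-house ADP Glo assays covered CDK4/D1 and CDK6/D3 (RB-CTF substrate, pH 7.5 Tris buffer with MgCl2, DTT, BSA) and CDK9/T1 (RBER-IRStide substrate), 40 min at 37° C.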

The target of assay [2] is T2, CDKs and other kinases (Homo sapiens, UniProt P24941).
T2 construct: other: CDK2A; residual activity (%) at 10 μM CDK2A; compound at 10 μM
The assay is described as above. The assay is classed as biochemical. The settings on record: CDK2A; for remaining activity at 10 µM: compound at 10 μM, read-out: residual activity (%) at 10 μM CDK2A; for Ki: read-out: CDK inhibition, Ki (μM) CDK2A. Put shortly:
as §1

Assay [3] deals with T3, CDKs and other kinases (Homo sapiens, UniProt P50613).
T3 construct: other: CDK7H; residual activity (%) at 10 μM CDK7H; compound at 10 μM
The description is as above. The assay is classed as biochemical. To be noted: CDK7H; for remaining activity at 10 µM: compound at 10 μM, read-out: residual activity (%) at 10 μM CDK7H; for Ki: read-out: CDK inhibition, Ki (μM) CDK7H. An outline of the steps: as §1

A further assay relates to leukemia cell lines. As to the kind of experiment: Resazurin cell viability assay on leukemia cell lines (72 h growth inhibition, GI50). Format: cell-based. The settings on record: Homo sapiens, MV4-11 cells. How it is done: Compounds from Example 1 were subjected to a standard MTT (3-(4,5-dimethylthiazol-2-yl)-2,5-diphenyltetrazolium bromide) and resazurin assays on solid tumour cell lines and leukemia cell lines, respectively, as previously reported (Wang S et al., J Med Chem 47:1662-1675, 2004 and Diab S. et al. CheMedChem 9:962-972, 2014). Compound concentrations required to inhibit 50% of cell growth (GI50) were calculated using non-linear regression analysis.
On the technique in general: The colour change of resazurin is a common sign of viable cells or microbes.

SMILES strings stand for the structures.

CDK4/D1, sequence (P11802 whole entry): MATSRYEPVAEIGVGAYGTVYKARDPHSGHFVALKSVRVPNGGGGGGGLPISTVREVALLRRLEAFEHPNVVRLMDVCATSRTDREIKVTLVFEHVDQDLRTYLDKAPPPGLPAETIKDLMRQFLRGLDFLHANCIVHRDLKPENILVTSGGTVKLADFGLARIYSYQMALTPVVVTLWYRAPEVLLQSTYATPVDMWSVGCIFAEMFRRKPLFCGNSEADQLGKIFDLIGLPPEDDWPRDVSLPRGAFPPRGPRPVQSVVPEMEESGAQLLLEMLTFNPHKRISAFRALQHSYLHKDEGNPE
CDK4/D1, sequence (P24385 whole entry partner): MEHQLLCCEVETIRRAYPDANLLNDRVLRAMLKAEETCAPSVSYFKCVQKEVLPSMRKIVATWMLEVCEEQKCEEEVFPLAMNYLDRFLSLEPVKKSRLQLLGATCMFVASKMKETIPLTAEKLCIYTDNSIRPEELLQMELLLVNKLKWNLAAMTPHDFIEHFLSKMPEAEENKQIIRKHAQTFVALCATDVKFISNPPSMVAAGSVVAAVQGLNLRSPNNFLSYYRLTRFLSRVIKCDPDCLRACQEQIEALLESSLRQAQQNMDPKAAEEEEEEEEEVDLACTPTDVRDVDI
CDK9/T1, sequence (P50750 whole entry): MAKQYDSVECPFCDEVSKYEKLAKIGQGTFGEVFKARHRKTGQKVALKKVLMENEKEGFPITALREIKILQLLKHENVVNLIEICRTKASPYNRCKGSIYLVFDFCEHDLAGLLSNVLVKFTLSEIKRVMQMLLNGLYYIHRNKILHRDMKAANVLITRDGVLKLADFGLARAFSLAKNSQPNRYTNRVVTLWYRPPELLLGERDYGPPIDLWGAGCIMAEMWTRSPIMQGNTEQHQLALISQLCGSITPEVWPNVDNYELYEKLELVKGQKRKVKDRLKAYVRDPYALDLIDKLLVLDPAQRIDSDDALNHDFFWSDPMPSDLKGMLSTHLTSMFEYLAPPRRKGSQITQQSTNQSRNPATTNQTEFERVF
CDK9/T1, sequence (O60563 whole entry partner): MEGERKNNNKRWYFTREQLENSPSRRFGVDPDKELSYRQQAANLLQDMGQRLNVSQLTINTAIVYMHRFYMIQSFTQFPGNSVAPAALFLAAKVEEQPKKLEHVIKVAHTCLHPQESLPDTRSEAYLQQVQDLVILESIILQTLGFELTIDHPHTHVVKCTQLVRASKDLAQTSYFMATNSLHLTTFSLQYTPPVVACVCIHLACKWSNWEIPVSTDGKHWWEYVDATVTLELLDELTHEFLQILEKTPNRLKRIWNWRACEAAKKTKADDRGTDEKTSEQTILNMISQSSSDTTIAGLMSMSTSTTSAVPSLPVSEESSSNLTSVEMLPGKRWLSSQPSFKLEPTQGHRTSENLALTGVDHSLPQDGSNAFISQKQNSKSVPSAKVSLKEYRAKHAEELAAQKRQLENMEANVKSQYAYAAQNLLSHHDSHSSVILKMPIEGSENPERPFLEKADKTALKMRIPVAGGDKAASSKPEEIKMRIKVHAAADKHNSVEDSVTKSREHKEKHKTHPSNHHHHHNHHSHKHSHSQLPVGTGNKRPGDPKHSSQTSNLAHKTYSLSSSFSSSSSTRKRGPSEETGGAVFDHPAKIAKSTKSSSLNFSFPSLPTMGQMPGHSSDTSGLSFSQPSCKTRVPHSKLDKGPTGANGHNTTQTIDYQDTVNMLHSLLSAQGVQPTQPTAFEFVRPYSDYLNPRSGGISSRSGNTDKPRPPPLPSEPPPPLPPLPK
T3 sequence (P50613 whole entry): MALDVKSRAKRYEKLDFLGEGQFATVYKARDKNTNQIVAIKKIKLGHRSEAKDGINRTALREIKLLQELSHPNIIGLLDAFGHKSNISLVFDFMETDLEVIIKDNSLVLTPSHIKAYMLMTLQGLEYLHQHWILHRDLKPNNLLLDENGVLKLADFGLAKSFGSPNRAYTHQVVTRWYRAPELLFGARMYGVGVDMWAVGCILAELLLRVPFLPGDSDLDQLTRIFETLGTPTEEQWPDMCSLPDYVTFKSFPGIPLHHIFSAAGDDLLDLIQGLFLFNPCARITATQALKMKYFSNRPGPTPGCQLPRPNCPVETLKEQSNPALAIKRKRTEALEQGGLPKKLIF
T1 sequence (P06493 whole entry): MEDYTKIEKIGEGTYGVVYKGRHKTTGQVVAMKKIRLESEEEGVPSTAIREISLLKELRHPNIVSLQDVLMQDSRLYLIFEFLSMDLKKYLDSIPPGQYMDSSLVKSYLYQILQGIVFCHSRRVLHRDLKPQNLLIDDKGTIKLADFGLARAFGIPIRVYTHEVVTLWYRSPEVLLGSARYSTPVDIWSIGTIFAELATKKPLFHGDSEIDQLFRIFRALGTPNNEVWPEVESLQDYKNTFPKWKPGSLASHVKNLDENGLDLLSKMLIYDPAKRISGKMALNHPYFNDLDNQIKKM

A word on the Ki: it is a measure of affinity in units of concentration, obtained from inhibition or displacement. In general, GI50 refers to the concentration at which growth is held to half of that of the control. The low end stands for more potent growth inhibition, the high end for less potent growth inhibition. Turning to `Cc1cnc(NC2CCC(F)(F)CC2)nc1-c1cnc2ccccn12` [Compound 156, N-(4,4-Difluorocyclohexyl)-4-(imidazo[1,2-a]pyridin-3-yl)-5-methylpyrimidin-2-amine], the remaining activity at 10 µM at CDK4/D1 came out at 51%; at CDKs and other kinases [1], 77%; on CDKs and other kinases [2], 34%; at CDKs and other kinases [3], 80%. Further, the Ki at CDK9/T1 is more than 5 µM. In the assay on leukemia cell lines, this molecule showed a 50% growth inhibitory concentration (GI50) of 3.3 ± 0.31 µM.
Take `Fc1cnc(NC2CCN(CC3CCCC3)CC2)nc1-c1cnc2ccc(-c3ccccc3)cn12` [Compound 146, N-(1-(Cyclopentylmethyl)piperidin-4-yl)-5-fluoro-4-(6-phenylimidazo[1,2-a]pyridin-3-yl)pyrimidin-2-amine]: the remaining activity at 10 µM on CDK4/D1 amounted to 34%; on CDKs and other kinases [1], 16%; at CDKs and other kinases [2] it was 34%. In addition, the inhibition constant Ki at CDK9/T1 was 1.82 µM; at CDKs and other kinases [3] it was 0.37 µM. Besides, the GI50 in the assay on leukemia cell lines was 0.026 ± 0.003 µM.
As for `Cc1cnc(N[C@H]2CC[C@H](C)CC2)nc1-c1cnc2ccc(-c3ccccc3)cn12` [Compound 151, 5-Methyl-N-((1r,4r)-4-methylcyclohexyl)-4-(6-phenylimidazo[1,2-a]pyridin-3-yl)pyrimidin-2-amine], the remaining activity at 10 µM at CDK4/D1 turned out to be 93%; on CDKs and other kinases [1], 96%; on CDKs and other kinases [2], 87%; on CDKs and other kinases [3] it was 94%. Besides, the Ki at CDK9/T1 was more than 5 µM. Further, the concentration for 50% growth inhibition (GI50) in the assay on leukemia cell lines is 8.643 ± 0.01 µM.
As for `Cc1cnc(NC2CCC(N(C)C)CC2)nc1-c1cnc2ccc(Nc3cncc(F)c3)cn12` (stereo not drawn) [Compound 120, N^1-(4-(6-((5-Fluoropyridin-3-yl)amino)imidazo[1,2-a]pyridin-3-yl)-5-methylpyrimidin-2-yl)-N^4,N^4-dimethylcyclohexane-1,4-diamine], the inhibition constant (Ki) was 0.87 µM at CDK4/D1 (read-out: CDK inhibition, Ki (μM) CDK4D1) and 0.015 µM at CDK9/T1. Also, the remaining activity at 10 µM turned out to be 31% on CDKs and other kinases [1]; 4% at CDKs and other kinases [2]; 29% on CDKs and other kinases [3]. The same molecule returned a GI50 in the assay with leukemia cell lines of 0.023 ± 0.01 µM.
On to `CCN[C@H]1CC[C@H](Nc2ncc(C)c(-c3cnc4ccc(-c5ccccc5)cn34)n2)CC1` [Compound 131, (1r,4r)-N^1-Ethyl-N^4-(5-methyl-4-(6-phenylimidazo[1,2-a]pyridin-3-yl)pyrimidin-2-yl)cyclohexane-1,4-diamine], for which the remaining activity at 10 µM came out at 24% on CDK4/D1; 29% on CDKs and other kinases [1]; 44% at CDKs and other kinases [2]; 20% at CDKs and other kinases [3]. Further, at CDK9/T1, the inhibitory constant (Ki) is 0.32 µM. Besides, the GI50 in the assay on leukemia cell lines is 0.132 ± 0.059 µM.
With `Fc1cnc(N[C@H]2CC[C@H](N3CCC3)CC2)nc1-c1cnc2ccc(-c3ccccc3)cn12` [Compound 138, N-((1r,4r)-4-(Azetidin-1-yl)cyclohexyl)-5-fluoro-4-(6-phenylimidazo[1,2-a]pyridin-3-yl)pyrimidin-2-amine], the remaining activity at 10 µM on CDK4/D1 amounted to 6%; on CDKs and other kinases [3] it was 0%. Further, the Ki at CDK9/T1 was 0.006 µM; on CDKs and other kinases [1], 0.076 µM; on CDKs and other kinases [2], 0.111 µM. The same molecule came in with a GI50 with leukemia cell lines of less than 0.001 µM.
Regarding `CN1CCC(Nc2ncc(F)c(-c3cnc4ccc(-c5ccccc5)cn34)n2)CC1` [Compound 144, 5-Fluoro-N-(1-Methylpiperidin-4-yl)-4-(6-phenylimidazo [1,2-a]pyridin-3-yl)pyrimidin-2-amine], the remaining activity at 10 µM on CDK4/D1 was found to be 20%; at CDKs and other kinases [2], 8%. Moreover, the Ki at CDK9/T1 worked out at 0.138 µM; at CDKs and other kinases [1], 0.047 µM; at CDKs and other kinases [3] it was 0.072 µM. The molecule further had a concentration for 50% growth inhibition (GI50) in the assay with leukemia cell lines of 0.005 ± 0.003 µM.
As to `Fc1cnc(NC2CCNCC2)nc1-c1cnc2ccc(-c3ccccc3)cn12` [Compound 143, 5-Fluoro-4-(6-phenylimidazo[1,2-a]pyridin-3-yl)-N-(piperidin-4-yl)pyrimidin-2-amine], the remaining activity at 10 µM on CDK4/D1 came to 4%; at CDKs and other kinases [1], 3%; at CDKs and other kinases [2], 4%. In addition, the Ki is 0.108 µM at CDK9/T1; 0.088 µM on CDKs and other kinases [3]. Also, the GI50 in the assay on leukemia cell lines was found to be 0.003 ± 0.001 µM.
For the molecule `COCCN[C@H]1CC[C@@H](Nc2ncc(C)c(-c3cnc4ccc(-c5ccccc5)cn34)n2)CC1` [Compound 130, (1s,4s)-N^1-(2-Methoxyethyl)-N^4-(5-methyl-4-(6-phenylimidazo[1,2-a]pyridin-3-yl)pyrimidin-2-yl) cyclohexane-1,4-diamine], the remaining activity at 10 µM on CDK4/D1 came to 23%; on CDKs and other kinases [1], 25%; at CDKs and other kinases [2] it was 23%; at CDKs and other kinases [3], 40%. In addition, the inhibitory constant (Ki) on CDK9/T1 stood at 1.12 µM. Halving of growth with leukemia cell lines (GI50) required 0.172 ± 0.001 µM.
`CN1CCC(Nc2ncc(F)c(-c3cnc4ccc(-c5ccc(S(=O)(=O)N(C)C)cc5)cn34)n2)CC1` [Compound 148, 4-(3-(5-Fluoro-2-((1-methylpiperidin-4-yl)amino)pyrimidin-4-yl)imidazo[1,2-a]pyridin-6-yl)-N,N-dimethylbenzenesulfonamide]: the remaining activity at 10 µM on CDK4/D1 was found to be 70%; on CDKs and other kinases [1] it was 27%; at CDKs and other kinases [2] it was 46%; at CDKs and other kinases [3], 18%. The Ki at CDK9/T1 was 0.261 µM. In the assay with leukemia cell lines, the GI50 is 0.023 ± 0.007 µM.
Turning to `Cc1cnc(N[C@H]2CC[C@H](C)CC2)nc1-c1cnc2ccc(Nc3cncnc3)cn12` [Compound 152, 3-(5-Methyl-2-(((1r,4r)-4-methylcyclohexyl)amino)pyrimidin-4-yl)-N-(pyrimidin-5-yl)imidazo[1,2-a]pyridin-6-amine], the remaining activity at 10 µM at CDK4/D1 was found to be 20%; on CDKs and other kinases [1], 34%; at CDKs and other kinases [2], 5%; at CDKs and other kinases [3], 55%. In addition, the inhibitory constant (Ki) at CDK9/T1 was 0.181 µM. Moreover, the GI50 in the assay on leukemia cell lines was 2.86 ± 0.29 µM.
For `Cc1cnc(N[C@H]2CC[C@H](N)CC2)nc1-c1cnc2ccc(Nc3ccccn3)cn12` [Compound 128, (1r,4r)-N^1-(5-Methyl-4-(6-(pyridin-2-ylamino)imidazo [1,2-a]pyridin-3-yl)pyrimidin-2-yl)cyclohexane-1,4-diamine], the remaining activity at 10 µM at CDK4/D1 was 38%; on CDKs and other kinases [1], 45%; on CDKs and other kinases [3], 34%. Further, the inhibition constant Ki on CDK9/T1 was found to be 0.31 µM; at CDKs and other kinases [2], 0.706 µM. In the assay on leukemia cell lines, this molecule had a GI50 of 0.068 ± 0.006 µM.
As to `Cc1cnc(N[C@H]2CC[C@@H](N3CCC3)CC2)nc1-c1cnc2ccc(-c3ccccc3)cn12` [Compound 136, N-((1s,4s)-4-(Azetidin-1-yl)cyclohexyl)-5-methyl-4-(6-phenylimidazo[1,2-a]pyridin-3-yl)pyrimidin-2-amine], the remaining activity at 10 µM on CDK4/D1 came out at 48%; on CDKs and other kinases [1], 22%; at CDKs and other kinases [2], 59%; on CDKs and other kinases [3], 36%. On CDK9/T1, the Ki amounted to 2.77 µM. In addition, the GI50 with leukemia cell lines came to 0.297 ± 0.001 µM.
